Test results as given in patent US20090208434A1, “3-(4-hydroxy-3-methoxyphenyl)-1-(4-hydroxyphenyl)-1-propanone and its use in cosmetic and pharmaceutical preparations” (SYMRISE GmbH & Co. KG, priority 2008, published 2009).

Tests used:
[1] = Sensitization and irritation test of the compound itself; details: test concentration of 50% by weight
Source text: The inventive compound of formula 1 with an anti-inflammatory effect can also be used as a component of inventive scent compositions (odorous substance compositions) and for example to give a perfumed finished product an anti-inflammatory effect. Since the proportion of perfume in a cosmetic finished product is often around 1% by weight, a scent containing the inventive compound of formula 1, will preferably include or be comprised approximately 1-50% by weight of the compound of formula 1.

[2] = Investigations of the chemical characteristics (stability); type: physicochemical
Source text: Furthermore, once the inventive compound of formula 1 had been incorporated into inventive cosmetic and pharmaceutical preparations no discoloration of this preparation was detected.

IL-1 = test: Inhibition of upregulation of inflammatory mediators: IL-1; details: according to the dose and even at low concentrations
Source text: (§1) It can therefore be used as an outstanding alternative or as an addition to other already well-known anti-inflammatory compounds (active substances) in cosmetic and pharmaceutical preparations or similar as an anti-inflammatory active substance.

IL-6 = test: Inhibition of upregulation of inflammatory mediators: IL-6; details: according to the dose and even at low concentrations
Source text: as §1

PGE-2 (prostaglandin E2) = test: Inhibition of upregulation of inflammatory mediators: PGE-2; details: according to the dose and even at low concentrations
Source text: as §1

[3] = tested on: TNF-alpha (tumor necrosis factor alpha); test: Inhibition of upregulation of inflammatory mediators: TNF-alpha; details: according to the dose and even at low concentrations
Source text: as §1

With `COc1cc(CCC(=O)c2ccc(O)cc2)ccc1O` [compound of formula 1, 3-(4-hydroxy-3-methoxyphenyl)-1-(4-hydroxyphenyl)-1-propanone] the irritation [1] was “did not cause irritation”, the sensitization [1] was “not sensitizing” and the photostability [2] was “high photostability”. The temperature stability [2] was “high temperature stability”, the “stability in a broad pH range” value ([2]; broad pH range) was “high stability in a broad pH range” and the “upregulation of IL-1 caused by extrinsic and intrinsic factors” value (IL-1) was “inhibiting the upregulation”. The “upregulation of IL-6 caused by extrinsic and intrinsic factors” value (IL-6) was “inhibiting the upregulation”, the “upregulation of PGE-2 caused by extrinsic and intrinsic factors” value (PGE-2 (prostaglandin E2)) was “inhibiting the upregulation” and the “upregulation of TNF-alpha caused by extrinsic and intrinsic factors” value [3] was “inhibiting the upregulation”.
